Measurements as given in US9840513B2 (AbbVie S.à.r.l., priority 2015, dated 2017).

Target: T1, F508delCFTR cell surface expression in CFBE41o-F508delCFTR-HRP cells (Homo sapiens, UniProt P13569, DEL508-508)
T1 construct: fused on or other part: Horseradish peroxidase (HRP) reporter inserted in the fourth exofacial (extracellular) loop of CFTR; expression is doxycycline-inducible
Experiment: Cell Surface Expression-Horse Radish Peroxidase (CSE-HRP) Assay
Format: cell-based
Settings: for EC50: CFBE41o-F508delCFTR-HRP cells, 18-24 hours at 33° C., 8-point curve, highest concentration 20 μM; for Maximum % activity (%): maximum at any tested concentration, normalized to on-plate positive control (3 μM)
How it was run: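 Correctors incubated 18-24 h at 33 °C on doxycycline-induced (0.5 μg/mL, 72 h) CFBE41o-F508delCFTR-HRP cells, 3-fold series from 20 μM. After DPBS washes, luminol luminescence read; activity expressed relative to DMSO and a 3 μM positive control, EC50 fitted from triplicate plates.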

T1 sequence (P13569 with tags, fused parts or gaps DEL508-508 limits assumed): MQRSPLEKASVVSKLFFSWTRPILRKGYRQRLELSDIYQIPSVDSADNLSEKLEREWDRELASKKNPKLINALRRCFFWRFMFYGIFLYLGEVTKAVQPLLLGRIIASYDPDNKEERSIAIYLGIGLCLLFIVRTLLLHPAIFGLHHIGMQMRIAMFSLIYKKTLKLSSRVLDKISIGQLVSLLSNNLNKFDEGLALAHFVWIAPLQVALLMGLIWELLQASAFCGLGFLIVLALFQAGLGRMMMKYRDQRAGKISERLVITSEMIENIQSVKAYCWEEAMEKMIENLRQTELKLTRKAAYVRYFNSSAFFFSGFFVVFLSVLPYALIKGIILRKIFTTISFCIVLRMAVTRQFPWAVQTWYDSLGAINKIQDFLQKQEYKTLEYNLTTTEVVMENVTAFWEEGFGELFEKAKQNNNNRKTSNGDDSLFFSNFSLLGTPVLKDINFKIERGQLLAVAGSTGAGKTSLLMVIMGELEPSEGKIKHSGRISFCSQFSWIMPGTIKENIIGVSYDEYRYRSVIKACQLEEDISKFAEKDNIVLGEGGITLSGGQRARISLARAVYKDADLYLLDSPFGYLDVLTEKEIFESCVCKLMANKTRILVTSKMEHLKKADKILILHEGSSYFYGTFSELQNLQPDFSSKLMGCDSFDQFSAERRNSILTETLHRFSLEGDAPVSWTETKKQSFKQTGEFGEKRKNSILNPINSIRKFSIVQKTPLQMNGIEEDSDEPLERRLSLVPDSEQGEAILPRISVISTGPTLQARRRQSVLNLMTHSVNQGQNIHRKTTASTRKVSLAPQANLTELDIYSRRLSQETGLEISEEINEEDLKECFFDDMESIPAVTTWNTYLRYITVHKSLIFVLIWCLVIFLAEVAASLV
T1 sequence (P13569 919-1480 limits assumed, stated change not applied): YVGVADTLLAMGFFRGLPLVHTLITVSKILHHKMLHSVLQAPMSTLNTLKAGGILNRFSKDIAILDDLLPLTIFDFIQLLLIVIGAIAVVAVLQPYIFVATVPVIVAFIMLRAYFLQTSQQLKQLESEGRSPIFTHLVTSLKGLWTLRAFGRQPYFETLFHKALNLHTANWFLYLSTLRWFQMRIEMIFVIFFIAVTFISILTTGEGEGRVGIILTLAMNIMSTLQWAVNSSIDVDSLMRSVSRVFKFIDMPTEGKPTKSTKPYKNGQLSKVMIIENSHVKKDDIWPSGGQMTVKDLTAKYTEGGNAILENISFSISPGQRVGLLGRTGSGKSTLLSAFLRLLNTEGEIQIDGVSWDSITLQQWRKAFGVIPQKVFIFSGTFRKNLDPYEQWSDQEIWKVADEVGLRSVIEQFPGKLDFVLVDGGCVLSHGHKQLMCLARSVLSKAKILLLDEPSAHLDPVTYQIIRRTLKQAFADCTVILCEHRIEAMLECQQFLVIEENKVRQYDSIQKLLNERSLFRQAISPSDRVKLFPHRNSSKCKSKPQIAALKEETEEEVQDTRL

COc1ccc2c(c1)O[C@@H](c1ccc(C(=O)NC3CCS(=O)(=O)CC3)cn1)C[C@H]2NC(=O)[C@@]1(C)COc2cc3c(cc21)OC(F)(F)O3 [Example 217, 6-[(2R,4R)-4-{[(7R)-2,2-difluoro-7-methyl-6,7-dihydro-2H-furo[2,3-f][1,3]benzodioxole-7-carbonyl]amino}-7-methoxy-3,4-dihydro-2H-1-benzopyran-2-yl]-N-(1,1-dioxo-1lambda^6-thian-4-yl)pyridine-3-carboxamide]
EC50: 120 nM
Maximum % activity (%): 104%

COc1ccc2c(c1)O[C@@H](c1ccc(C(=O)N3CCC(F)(F)CC3)cn1)C[C@H]2NC(=O)[C@@]1(C)COc2cc3c(cc21)OC(F)(F)O3 [Example 218, (7R)—N-{(2R,4R)-2-[5-(4,4-difluoropiperidine-1-carbonyl)pyridin-2-yl]-7-methoxy-3,4-dihydro-2H-1-benzopyran-4-yl}-2,2-difluoro-7-methyl-6,7-dihydro-2H-furo[2,3-f][1,3]benzodioxole-7-carboxamide]
EC50: 10 nM
Maximum % activity (%): 116%

COc1ccc2c(c1)O[C@@H](c1ccc(C(=O)N3CCCOCC3)cn1)C[C@H]2NC(=O)[C@@]1(C)COc2cc3c(cc21)OC(F)(F)O3 [Example 219, (7R)-2,2-difluoro-N-{(2R,4R)-7-methoxy-2-[5-(1,4-oxazepane-4-carbonyl)pyridin-2-yl]-3,4-dihydro-2H-1-benzopyran-4-yl}-7-methyl-6,7-dihydro-2H-furo[2,3-f][1,3]benzodioxole-7-carboxamide]
EC50: 30 nM
Maximum % activity (%): 105%

COc1ccc2c(c1)O[C@@H](c1ccc(C(=O)NC3c4ccccc4CC3O)cn1)C[C@H]2NC(=O)[C@@]1(C)COc2cc3c(cc21)OC(F)(F)O3 (stereo partly drawn) [Example 221, 6-[(2R,4R)-4-{[(7R)-2,2-difluoro-7-methyl-6,7-dihydro-2H-furo[2,3-f][1,3]benzodioxole-7-carbonyl]amino}-7-methoxy-3,4-dihydro-2H-1-benzopyran-2-yl]-N-(2-hydroxy-2,3-dihydro-1H-inden-1-yl)pyridine-3-carboxamide]
EC50: 80 nM
Maximum % activity (%): 125%

COc1ccc2c(c1)O[C@@H](c1ccc(C(=O)NC(CO)c3ccccc3OC)cn1)C[C@H]2NC(=O)[C@@]1(C)COc2cc3c(cc21)OC(F)(F)O3 (stereo partly drawn) [Example 222, 6-[(2R,4R)-4-{[(7R)-2,2-difluoro-7-methyl-6,7-dihydro-2H-furo[2,3-f][1,3]benzodioxole-7-carbonyl]amino}-7-methoxy-3,4-dihydro-2H-1-benzopyran-2-yl]-N-[2-hydroxy-1-(2-methoxyphenyl)ethyl]pyridine-3-carboxamide]
EC50: 20 nM
Maximum % activity (%): 116%

COc1ccc2c(c1)O[C@@H](c1ccc(C(=O)N3CCC(F)(F)CC3)cc1)C[C@H]2NC(=O)[C@@]1(C)COc2cc3c(cc21)OC(F)(F)O3 [Example 223, (7R)—N-{(2R,4R)-2-[4-(4,4-difluoropiperidine-1-carbonyl)phenyl]-7-methoxy-3,4-dihydro-2H-1-benzopyran-4-yl}-2,2-difluoro-7-methyl-6,7-dihydro-2H-furo[2,3-f][1,3]benzodioxole-7-carboxamide]
EC50: 70 nM
Maximum % activity (%): 157%

C[C@]1(C(=O)N[C@@H]2C[C@H](C3CCN(C(=O)OCc4ccccc4)CC3)Oc3cc(OC(F)(F)F)ccc32)COc2cc3c(cc21)OC(F)(F)O3 [Example 224, benzyl 4-[(2R,4R)-4-{[(7R)-2,2-difluoro-7-methyl-6,7-dihydro-2H-furo[2,3-f][1,3]benzodioxole-7-carbonyl]amino}-7-(trifluoromethoxy)-3,4-dihydro-2H-1-benzopyran-2-yl]piperidine-1-carboxylate]
EC50: 310 nM
Maximum % activity (%): 199%

C[C@]1(C(=O)N[C@H]2C[C@@H](C3CCN(C(=O)OCc4ccccc4)CC3)Oc3cc(OC(F)(F)F)ccc32)COc2cc3c(cc21)OC(F)(F)O3 [Example 225, benzyl 4-[(2S,4S)-4-{[(7R)-2,2-difluoro-7-methyl-6,7-dihydro-2H-furo[2,3-f][1,3]benzodioxole-7-carbonyl]amino}-7-(trifluoromethoxy)-3,4-dihydro-2H-1-benzopyran-2-yl]piperidine-1-carboxylate]
EC50: 4020 nM
Maximum % activity (%): 54%

CC1(C)OC[C@H](CN2CCC([C@@H]3C[C@H](NC(=O)[C@@]4(C)COc5cc6c(cc54)OC(F)(F)O6)c4ccc(OC(F)(F)F)cc4O3)CC2)O1 [Example 226, (7R)—N-[(2S,4S)-2-(1-{[(4S)-2,2-dimethyl-1,3-dioxolan-4-yl]methyl}piperidin-4-yl)-7-(trifluoromethoxy)-3,4-dihydro-2H-1-benzopyran-4-yl]-2,2-difluoro-7-methyl-6,7-dihydro-2H-furo[2,3-f][1,3]benzodioxole-7-carboxamide]
EC50: > 20000 nM
Maximum % activity (%): 18%

COc1ccc2c(c1)O[C@@H](c1ccc(C(=O)NCC(N)=O)cn1)C[C@H]2NC(=O)[C@@]1(C)COc2cc3c(cc21)OC(F)(F)O3 [Example 227, N-(2-amino-2-oxoethyl)-6-[(2R,4R)-4-{[(7R)-2,2-difluoro-7-methyl-6,7-dihydro-2H-furo[2,3-f][1,3]benzodioxole-7-carbonyl]amino}-7-methoxy-3,4-dihydro-2H-1-benzopyran-2-yl]pyridine-3-carboxamide]
EC50: 70 nM
Maximum % activity (%): 113%

COc1ccc2c(c1)O[C@@H](c1ccc(C(=O)NCCCC(N)=O)cn1)C[C@H]2NC(=O)[C@@]1(C)COc2cc3c(cc21)OC(F)(F)O3 [Example 228, N-(4-amino-4-oxobutyl)-6-[(2R,4R)-4-{[(7R)-2,2-difluoro-7-methyl-6,7-dihydro-2H-furo[2,3-f][1,3]benzodioxole-7-carbonyl]amino}-7-methoxy-3,4-dihydro-2H-1-benzopyran-2-yl]pyridine-3-carboxamide]
EC50: 90 nM
Maximum % activity (%): 108%

COc1ccc2c(c1)O[C@@H](c1ccc(C(=O)NC(C)CC(N)=O)cn1)C[C@H]2NC(=O)[C@@]1(C)COc2cc3c(cc21)OC(F)(F)O3 (stereo partly drawn) [Example 229, N-(4-amino-4-oxobutan-2-yl)-6-[(2R,4R)-4-{[(7R)-2,2-difluoro-7-methyl-6,7-dihydro-2H-furo[2,3-f][1,3]benzodioxole-7-carbonyl]amino}-7-methoxy-3,4-dihydro-2H-1-benzopyran-2-yl]pyridine-3-carboxamide]
EC50: 110 nM
Maximum % activity (%): 118%

COc1ccc2c(c1)O[C@@H](c1ccc(C(=O)NCCS(C)(=O)=O)cn1)C[C@H]2NC(=O)[C@@]1(C)COc2cc3c(cc21)OC(F)(F)O3 [Example 230, 6-[(2R,4R)-4-{[(7R)-2,2-difluoro-7-methyl-6,7-dihydro-2H-furo[2,3-f][1,3]benzodioxole-7-carbonyl]amino}-7-methoxy-3,4-dihydro-2H-1-benzopyran-2-yl]-N-[2-(methanesulfonyl)ethyl]pyridine-3-carboxamide]
EC50: 60 nM
Maximum % activity (%): 115%

COc1ccc2c(c1)O[C@@H](c1ccc(C(=O)NCC3CNC(=O)C3)cn1)C[C@H]2NC(=O)[C@@]1(C)COc2cc3c(cc21)OC(F)(F)O3 (stereo partly drawn) [Example 231, 6-[(2R,4R)-4-{[(7R)-2,2-difluoro-7-methyl-6,7-dihydro-2H-furo[2,3-f][1,3]benzodioxole-7-carbonyl]amino}-7-methoxy-3,4-dihydro-2H-1-benzopyran-2-yl]-N-[(5-oxopyrrolidin-3-yl)methyl]pyridine-3-carboxamide]
EC50: 250 nM
Maximum % activity (%): 103%
